Laboratory results as given in patent US12351574B2, “Selective ligands for modulation of GIRK channels” (Northeastern University, priority 2018, dated 2025).

Molecular target: T1, GIRK1/2 (UniProt P48542+P48549)
T1 sequence (P48549 1-501): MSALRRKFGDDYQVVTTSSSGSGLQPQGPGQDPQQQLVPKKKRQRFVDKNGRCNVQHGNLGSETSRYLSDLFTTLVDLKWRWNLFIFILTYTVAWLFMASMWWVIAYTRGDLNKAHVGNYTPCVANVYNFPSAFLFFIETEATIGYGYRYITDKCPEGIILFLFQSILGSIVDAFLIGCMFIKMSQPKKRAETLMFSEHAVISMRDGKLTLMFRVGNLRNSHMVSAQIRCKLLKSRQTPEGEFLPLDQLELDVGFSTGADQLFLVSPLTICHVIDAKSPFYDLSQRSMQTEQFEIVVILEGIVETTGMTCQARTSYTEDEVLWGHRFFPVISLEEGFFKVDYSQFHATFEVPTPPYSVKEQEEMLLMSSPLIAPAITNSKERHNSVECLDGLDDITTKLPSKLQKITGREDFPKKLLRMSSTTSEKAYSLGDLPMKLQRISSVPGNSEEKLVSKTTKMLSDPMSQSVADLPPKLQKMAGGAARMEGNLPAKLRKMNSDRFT
T1 sequence (P48542 1-425): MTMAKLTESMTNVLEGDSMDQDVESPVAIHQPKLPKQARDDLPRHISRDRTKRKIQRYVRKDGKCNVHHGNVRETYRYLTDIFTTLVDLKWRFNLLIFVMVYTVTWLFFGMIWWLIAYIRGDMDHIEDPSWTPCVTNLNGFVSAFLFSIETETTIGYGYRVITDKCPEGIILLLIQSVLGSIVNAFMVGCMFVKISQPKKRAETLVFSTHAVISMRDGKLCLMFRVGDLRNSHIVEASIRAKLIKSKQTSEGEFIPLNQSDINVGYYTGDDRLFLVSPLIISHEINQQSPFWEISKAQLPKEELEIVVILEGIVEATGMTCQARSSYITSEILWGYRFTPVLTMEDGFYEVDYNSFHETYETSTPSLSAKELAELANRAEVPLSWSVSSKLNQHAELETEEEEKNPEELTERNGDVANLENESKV
Assay: diC8-PIP2 concentration-response (NPo), inside-out macropatches from Xenopus oocytes, GIRK1/2
Type: cell-based, human GIRK1, mouse GIRK2
Parameters: expressed in transfected cells; host or cells: Xenopus laevis oocytes (cRNA injection)
Details: in the presence of 10 μM compound; for EMAX of diC8-PIP2 response (NPo), GIRK1/2: control 5.7±0.3; for apparent affinity of GIRK1/2 channels to diC8-PIP2: control 36±7 μM
Excerpt: The inventors next turned to inside-out macropatches from Xenopus oocytes to compare changes in the PIP2 sensitivity by examining diC8 concentration-responses in the absence and presence of saturating concentrations of each of the activating compounds. […] In FIG. 14B, the control plot overlays the GAT1508 and GAT1521 plots; only ML297 was able to left-shift the sensitivity of GIRK1/4 heteromers to PIP2, while both GAT1508 and GAT1521 were ineffective in changing the sensitivity of these heteromers to PIP2.
Xenopus laevis oocyte expression: Plasmid DNAs of GIRK channel subunits were linearized prior to in vitro transcription. Capped RNAs were transcribed using mMESSAGE mMACHINE T7 Transcription Kit (Thermo Fisher Scientific). Xenopus oocytes were surgically extracted, dissociated and defolliculated by collagenase treatment, and microinjected with 50 nl of a water solution containing 1 ng of each GIRK subunit RNA. For TEVC experiments, oocytes were kept 2 days at 17° C. before recording, while for NPo experiments oocytes were incubated for up to 4 days at 17° C.
Oocyte macropatch studies: Macropatch GIRK channel activity was recorded from devitellinized oocytes under the inside-out mode of standard patch clamp methods using an AM2400 patch clamp amplifier (A-M systems). […] Oocytes were bathed with a solution comprising (in mM): 96 KCl, 5 EGTA, 1 MgATP and 10 HEPES (pH 7.4). Current amplitudes were measured at −80 mV with a sampling rate of 10 kHz. Data were analyzed using WinEDR and Clampfit software (Molecular Devices).

Cc1cc(NC(=O)Nc2ccc(Br)s2)n(-c2ccccc2)n1 [GAT1508, 1-(5-bromothiophen-2-yl)-3-(3-methyl-1-phenyl-1H-pyrazol-5-yl)urea]
EMAX of diC8-PIP2 response (NPo), GIRK1/2: 10.5±0.3 | apparent affinity of GIRK1/2 channels to diC8-PIP2: 5.5 ± 7 µM

Cc1cc(NC(=O)Nc2ccc(C)s2)n(-c2ccccc2)n1 [GAT1521, 1-(3-methyl-1-phenyl-1H-pyrazol-5-yl)-3-(5-methylthiophen-2-yl)urea]
EMAX of diC8-PIP2 response (NPo), GIRK1/2: 9.1±0.2 | apparent affinity of GIRK1/2 channels to diC8-PIP2: 11 ± 2 µM

Cc1cc(NC(=O)Nc2ccc(F)c(F)c2)n(-c2ccccc2)n1 [ML297, reference compound]
EMAX of diC8-PIP2 response (NPo), GIRK1/2: 7.5±0.4 | apparent affinity of GIRK1/2 channels to diC8-PIP2: 23 ± 5 µM
